Data from PubChem BioAssay (NCI).
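Cells were grown in 96-well plates and exposed to each compound for 48 hours at five concentrations; endpoints were interpolated linearly between bracketing concentrations, or set to the highest concentration if not reached. Here, GI50 denotes the concentration required for 50% inhibition of growth. Definition used: TGI = concentration required for complete inhibition of growth.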

What was measured:
Test in all cases: inhibition of tumour cell growth, NCI panel, 48 h
[1] = test system: A549 NSCLC
[2] = test system: K-562 leukemia
[3] = test system: KM12 colon
[4] = test system: LOX IMVI melanoma
[5] = test system: MALME-3M melanoma
[6] = test system: SF-268 CNS
[7] = test system: SK-MEL-28 melanoma
[8] = test system: SK-OV-3 ovarian
[9] = test system: SR leukemia
[10] = test system: UACC-62 melanoma

SMILES	TGI [1] [µM]	TGI [2] [µM]	TGI [3] [µM]	TGI [4] [µM]	TGI [5] [µM]	TGI [6] [µM]	TGI [7] [µM]	TGI [8] [µM]	TGI [9] [µM]	TGI [10] [µM]	GI50 [1] [µM]	GI50 [2] [µM]	GI50 [3] [µM]	GI50 [4] [µM]	GI50 [5] [µM]	GI50 [6] [µM]	GI50 [7] [µM]	GI50 [8] [µM]	GI50 [9] [µM]	GI50 [10] [µM]
O=C(O)c1cccc(S(=O)(=O)NN2C(=O)CSC2c2ccccc2)c1 (centres undefined)	> 100	> 100	> 100	> 100	> 100	> 100	> 100	> 100	> 100	> 100										
COc1cc(N(CCC#N)CCC#N)ccc1/C(N=Nc1ccc(C)cc1)=N/NC(=O)c1cc(Br)ccc1O	> 100	> 100	44.9	59	> 100	91.4	85.2	> 100	76.3	45.1										
COc1ccccc1/C=C1\Sc2scc(-c3cccc([N+](=O)[O-])c3)[n+]2C1=O	35.4	> 100	25.2	4.39	15.7	18	65.2	26	> 100	22.6										
Cc1cn(CC2=NCCN2)c(=O)[nH]c1=O	> 100	> 100	> 100	> 100	> 100	> 100	> 100	> 100	> 100	> 100										
CC(=O)Oc1c(C)cc(-c2cc(C)c(OC(C)=O)c(C)c2)cc1C	> 100	> 100	> 100	> 100	> 100	> 100	> 100	38.4	> 100	> 100										
O=C1C=C(N2CCCC2)C=C(N2CCCC2)C1	> 100	> 100	> 100	> 100	> 100	> 100	> 100	> 100	> 100	> 100										
CC[C@@H](CCCC[C@@H]1CC[C@H]2CC(=O)C[C@@H]12)OC	> 100	> 100	> 100	> 100	> 100	> 100	> 100	> 100	> 100	> 100										
Nc1nc(Cl)c(C=O)c(NCC2(CO)CC(CCc3ccccc3)C2)n1 (centres undefined)	25.5	4.57	28.5	10.8	30.2	36.5	12.1	24.4	4.15	16.2										
CC(C)(C)c1cc(C(=O)/C=C/c2ccc(O)c(O)c2O)cc(C(C)(C)C)c1O	40.9	21.7	11.6	24.3	> 67.5	> 51.4	28.1	53.7	4.67	18.8										
COc1ccc(/C=C2\CN(C(=O)CCN3CCC(=NO)CC3)C/C(=C\c3ccc(OC)cc3)C2=O)cc1	11.7	> 100	3.71	2.96	7.49		4.17	7	29.1	4.38	3.28	1.2	1.74	1.47	2.5	2.84	2	2.72	0.616	1.89
